Test results from patent US20100015249A1, “Antitumor agent containing 6'-amidino-2'-naphthyl 4-guanidinobenzoate or salt thereof” (priority 2005, published 2010).

Tests used:
IκBα = assay: Western blot of IκBα / phosphorylated IκBα in cytoplasm extracts; format: cell-based, human
Protocol: The human pancreas cancer cell line MDAPanc-28 was treated with various concentrations of FUT to examine the effect on IκBα. Cytoplasm extracts were extracted from cells treated with various concentrations of FUT according to the method generally known and Western blot was performed to detect each protein. More specifically, each lane was loaded with 50 μg of protein to perform electrophoresis. The gel was then transferred to a PVDF membrane (Osmonics). After blocking with PBS containing 5% nonfat milk for 2 hours at room temperature, primary antibody (anti-IκBα antibody) diluted with PBS containing 0.1% nonfat milk was added for reaction at 4° C. overnight. After rinsing with PBS, the PVDF membrane was then reacted with secondary antibody solution diluted with PBS containing 0.1% nonfat milk for 2 hours at room temperature. Proteins were detected by using Lumi-Light Western Blotting Substrate.

TNFRI = TNFRI expression by Northern blot and Western blot; format: cell-based, human
Protocol: A cDNA probe for hybridization was constructed by the following method. After FUT treatment, RNA was extracted from the human pancreas cancer cell line […]-28 by using TRIZOL Reagent (Life Technologies, Inc.) 15 μg of RNA was subjected to electrophoresis on a 1% denatured formaldehyde agarose gel and transferred to a nylon membrane. RT-PCR was performed in order to construct a cDNA probe to be used for the detection of TNFRI mRNA. With this RT-PCR, primers represented by SEQ ID Nos: 5 and 6 were used. The obtained cDNA was inserted into the pCR2.1-TOPO vector. […] The obtained cDNA probe was labeled with α-^32P dCTP by using the random labeling kit (Roche) and used for hybridization. The expression of TNFRI mRNA was confirmed by Northern blot method with the above mentioned probe according to the method generally known. […] Also, TNFRI expression on the cell surface was detected by Western blot method. More specifically, the experiment was performed by the method similar to the method described in Example 2. Mouse monoclonal anti-TNFR1 (H-5; Santa Cruz Biotechnology) was used for detection.

PEA3 = PEA3 expression after FUT treatment; format: cell-based, human; settings: MDAPanc-28, over time
jBid = assay: Western blot of Bid / jBid; format: cell-based, human; settings: MDAPanc-28, FUT 80 μg/ml, 0 to 24 hours
Protocol: The present inventors examined whether apoptosis signaling cascade is triggered with the elevation of TNFRI expression induced by FUT treatment, using caspase 8 as an indicator. Cytoplasmic fraction was prepared from the human pancreas cancer cell line […]-28 treated with various concentrations of FUT for 24 hours. Western blot was performed and subjected to the detection with anti-caspase 8 antibody (Santa Cruz Biotechnology) (FIG. 6-a). Western blot was performed to examine temporal changes in the expression of caspase 8, p-FADD, Bid and jBid under a constant concentration of FUT (80 μg/ml) at short intervals from 0 to 24 hours of treatment (FIGS. 6-b, 6-c and 6-d). Anti-FADD antibody was obtained from Santa Cruz Biotechnology and anti-Bid antibody was obtained from BD Pharmingen.

[1] = test system: human pancreas cancer cell line MDAPanc-28; assay: MTT assay of cell survival rate / living cell ratio; format: cell-based
Protocol: The present inventors examined the concomitant effect of FUT and TNF-α on apoptosis in cancer cells. After treatment with TNF-α for 24 hours, the human pancreas cancer cell line MDAPanc-28 was further cultured for 24 hours with various concentrations of FUT being added. Cells prepared were then subjected to an MTT assay according to the method generally known to calculate the cell survival rates. Also, DNA was extracted to perform a DNA fragmentation assay.
More specifically, with regard to the MTT assay, each well was seeded with 2000 cells per 100 μl of culture medium in a 96-well microtiterplate, followed by the above mentioned treatment. After plate centrifugation, each well received 5 mg/ml of MTT (Sigma) PBS solution instead of culture medium and was incubated for 4 hours at 37° C. After removing the supernatant, 100 μl of DMSO were added to dissolve the cells. The absorbance of the samples was measured at 570 nm by using a microplate reader. 8 wells were subjected to the same condition in this experiment. Two independent experiments were performed, and the average was calculated.
However, the agents are of different types with different mechanisms of action. Therefore, the present inventors examined the effect of each agent on the living cell ratio in the human pancreas cancer cell line MDAPanc-28 singularly. After being treated with each agent for 24 hours and 48 hours, the human pancreas cancer cell line MDAPanc-28 was subjected to a MTT assay. The MTT assay was performed by the method described in Example 9.

NF-κB = assay: Gel shift assay of gemcitabine-induced NF-κB activation; format: cell-based, human; settings: MDAPanc-28, pretreatment 3 hours then gemcitabine 3 hours
Protocol: At the same time, the present inventors also made a comparison with the other NF-κB inhibitors PS1145 and PS341. […] Subsequently, a gel shift assay was performed to examine the effect on NF-κB activation.

[2] = test system: human pancreas cancer cell line MDAPanc-28; assay: Apoptosis ratio by flow cytometry (propidium iodide, FACScan); format: cell-based; settings: MDAPanc-28, pretreatment with the agent 3 hours then gemcitabine 48 hours, compared with gemcitabine alone
Protocol: The present inventors next examined the effect of these agents on apoptosis induction in the human pancreas cancer cell line MDAPanc-28. […] Flow cytometry was used to confirm the occurrence of apoptosis. Cells were collected after treatments with the agents and fixed in 70% ethanol at −20° C. for 24 hours. After rinsing with PBS, cells were suspended in PBS containing 50 μg/ml of propium iodide, 0.1% Triton X-100, 0.1% sodium citrate and 1 μg/ml of DNase free RNase. The samples were incubated at room temperature for 30 minutes and the amount of DNA was measured by using FACScan.

[3] = test system: human pancreas cancer cell line MDAPanc-28; assay: Matrigel infiltration assay; format: cell-based; settings: MDAPanc-28 pretreated with 80 μg/ml FUT for 24 hours, 22-hour incubation in matrigel-coated chamber
Protocol: A matrigel infiltration assay was performed to examine an inhibitory effect on infiltration in the human pancreas cancer cell line MDAPanc-28 by FUT treatment. Cells treated with 80 μg/ml of FUT for 24 hours and untreated cells were respectively inoculated to a matrigel-coated chamber at a concentration of 20000 cells per well for a 22-hour incubation at 37° C. either in the presence or absence of 80 μg/ml of FUT. The numbers of infiltrated cells were then counted under the microscope after Wright-Giemsa staining according to the method generally known.

SMILES: N=C(N)c1ccc2cc(OC(=O)c3ccc(N=C(N)N)cc3)ccc2c1 [FUT, 6-amidino-2-naphthyl p-guanidinobenzoate dimethanesulfonate]
- level of phosphorylated IκBα in the cytoplasm (IκBα; MDAPanc-28, over time after adding FUT): declines overtime
- level of IκBα in the cytoplasm over time (IκBα; MDAPanc-28, time after addition of FUT up to 48 hours): increases along the progression of NF-κB inactivation up to 24 hours after addition of FUT and then is restored to a steady-state level after 48 hours
- level of IκBα in the cytoplasm (IκBα; MDAPanc-28, various concentrations of FUT): increased by FUT in a concentration-dependent manner
- level of TNFRI mRNA expression (TNFRI; MDAPanc-28, Northern blot): increased in a FUT concentration-dependent manner
- TNFRI expression on the cell surface (TNFRI; MDAPanc-28, Western blot): increased TNFRI expression on the cell surface
- PEA3 expression (PEA3): increased PEA3 expression overtime
- expression of JBid, the degradation product of Bid (jBid): overtime increase in the expression of JBid
- cell survival rate ([1]; MDAPanc-28, TNF-α 24 hours then various concentrations of FUT 24 hours, MTT, compared with control cells): significantly declined
- speed of inhibitory effect on proliferation ([1]; MDAPanc-28, comparison of FUT with PS1145): more rapid inhibitory effect than PS1145
- cell proliferation / living cell ratio ([1]; MDAPanc-28, single agent, 24 hours and 48 hours, MTT): inhibited in a FUT concentration-dependent manner
- living cell ratio at 48 hours compared to 24 hours ([1]; MDAPanc-28, single agent, MTT): slightly increased at 48 hours compared to the ratio at 24 hours
- effect on gemcitabine-induced activation of NF-κB (NF-κB): had an inhibitory effect on gemcitabine-induced activation of NF-κB
- inhibitory effect on gemcitabine-induced NF-κB activation compared among FUT, PS1145 and PS341 (NF-κB): most significant
- apoptosis induction in combination with gemcitabine [2]: further enhanced the effect on apoptosis induction
- infiltration (number of infiltrated cells) [3]: significant inhibitory effect on infiltration
